Experimental data reported in ChEMBL document CHEMBL3860035, “Isolation and Structure Elucidation of Cytotoxic Saccharothriolides D to F from a Rare Actinomycete Saccharothrix sp. and Their Structure-Activity Relationship” (J Nat Prod, 2016).
Where a name gives a salt, the structure may show the parent alone.

Legend:
[1] = Cytotoxicity against human HT1080 cells assessed as reduction cell viability after 72 hrs by WST8-based colorimetric analysis; assay type: functional; details: HT-1080, 72 h
[2] = Cytotoxicity against human HT1080 cells; assay type: functional, cell-based; details: HT-1080

Row | SMILES | IC50 [1] [µM] | IC50 [2] [µM]
1 | C[C@@H]1[C@@H](Nc2ccccc2O)[C@@H](C)C(=O)[C@@H](C)[C@@H](O)[C@H](C)C(=O)O[C@@H]1c1cc(O)cc(O)c1 | 29.2 | –
2 | C[C@@H]1[C@@H](Nc2ccccc2C(=O)O)[C@@H](C)C(=O)[C@@H](C)[C@@H](O)CC(=O)O[C@@H]1c1cc(O)cc(O)c1 | 66.4 | –
3 | C[C@@H]1[C@@H](Nc2ccccc2O)[C@@H](C)C(=O)[C@@H](C)[C@@H](O)[C@@H](C)C(=O)O[C@@H]1c1cc(O)cc(O)c1 | – | 13.9
4 | COc1cccc2c1C(=O)c1c(O)c3c(c(O)c1C2=O)C[C@@](O)(C(=O)CO)C[C@@H]3O[C@H]1C[C@H](N)[C@H](O)[C@H](C)O1 [DOXORUBICIN HYDROCHLORIDE] | 0.38 | –
